Patent US20250127699A1, “One Pot Process for Preparing 'Grit-Free' Solid Cleansing Compositions” (GALAXY SURFACTANTS LTD., priority 2023, published 2025)

Legend:
Assay in all cases: Minimum inhibitory concentration
Type in all cases: cell-based
Conditions in all cases: at pH 5.5, 1% solution
[1] = system: Staphylococcus aureus ATCC 6538
From the text: (§1) These gentle antimicrobials are well-established in personal care industry for their skin and scalp care benefits that stem from their broad range of antimicrobial activity. These are mostly deployed in a variety of ‘liquid’ wash formulations (body wash/hair wash) and sometimes in ‘leave-on’ creams and lotions (anti-acne). […] These two lipidated glycines, alone as well as when combined together, show remarkable activity against Candida albicans and Candida glabrata yeast (vaginal candidiasis, the yeast infection) and Gardnerella vaginalis (a Gram-variable bacterium that is a causative microbe for bacterial vaginosis). […] These two N-acyl glycines, akin to skin fatty acids, are devoid of any structural feature, like halogen atom or a heterocycle, that can be a potential hazard to the environment and living systems. […] The N-acyl glycine alone or in combination can be used up to 4.0% by weight of the total composition. The traditional environmentally toxic chlorinated antimicrobials for cleansing hygiene bars such as Chlorhexidne, Triclosan, Chloroxylenol, Climbazole, Triclocarban (banned in 2017) or other traditional anti-dandruff (antifungal) agents like Climbazole or Octopirox (monoethanol amine salt of piroctone), Zinc pyrithion (now banned in EU) etc. generate unsalvageable waste at every step of the multistep syntheses. In contrast to the facts (hazardous synthesis and toxicity) of traditional antimicrobials for solid cleansers, the lipidated glycines, that are part of solid compositions of the present invention, are manufactured by green chemistry without generating any unsalvageable/non-disposable waste as taught by IN patent 362888. Also, it is to be noted that N-acyl glycines are biodegradable and environmentally benign. These two lipidated glycines (Formula I and Formula II) are organic acids and by adding them in the second stage of processing when the mass of the first stage is being kneaded with limited amount of water in a sigma blender, helps to achieve the desired pH of the final solid cleanser. pH of the final solid cleanser can be brought down from 6.0 to 4.0 by incorporating these acyl glycines at an amount of about 0.5% to 4.0% of the total composition. The two N-acyl glycines can be used individually or in a combination. Examples 1 to 9 deploy either N-capryloyl glycine or N-undecylenoyl glycine, however, Example 10 to 13 use both of N-capryloyl glycine and N-undecylenoyl glycine. Higher % of capryloyl glycine (around 3.0% of the total composition) results in lower pH that is intended for anti-acne or feminine intimate hygiene wash as exemplified in Example 3. Minimum inhibitory concentrations of capryloyl glycine (CG) and undecylenoyl glycine (UG) and their combination (CG-UG) in 1:1 molar ratio using 1% solution at pH 5.5 are given in Table 1. […] The MIC numbers (less than 0.1%) for the N-acyl glycines against Gardnerella bacterium are extremely good. […] The preferred antimicrobials for the solid cleansers of the present invention are the combination of N-capryloyl glycine and N-undecylenoyl glycine in the molar ratio of 1:1.

[2] = system: Gardnerella vaginalis ATCC 14018
From the text: as §1

[3] = system: Escherichia coli ATCC 8739
From the text: as §1

[4] = system: Staphylococcus epidermidis NCIM 2493
From the text: as §1

[5] = system: Candida glabrata ATCC 66032
From the text: as §1

[6] = system: Aspergillus niger ATCC 16404
From the text: as §1

[7] = system: Propionibacterium acnes MTCC 1951
From the text: as §1

[8] = system: Burkholderia cepacia ATCC 25416
From the text: as §1

[9] = system: Corynebacterium xerosis ATCC 373
From the text: as §1

[10] = system: Candida albicans ATCC 10231
From the text: as §1

[11] = system: Staphylococcus hominis MTCC 8980
From the text: as §1

[12] = system: Pseudomonas aeruginosa ATCC 15442
From the text: as §1

[13] = system: Malassezia restricta ATCC MYA 4611
From the text: as §1

[14] = system: Malassezia furfur ATCC 14521
From the text: as §1

[15] = system: Micrococcus luteus NCIM 2103
From the text: as §1

Row | SMILES | Minimum Inhibitory Concentration [1] [%] | Minimum Inhibitory Concentration [2] [%] | Minimum Inhibitory Concentration [3] [%] | Minimum Inhibitory Concentration [4] [%] | Minimum Inhibitory Concentration [5] [%] | Minimum Inhibitory Concentration [6] [%] | Minimum Inhibitory Concentration [7] [%] | Minimum Inhibitory Concentration [8] [%] | Minimum Inhibitory Concentration [9] [%] | Minimum Inhibitory Concentration [10] [%] | Minimum Inhibitory Concentration [11] [%] | Minimum Inhibitory Concentration [12] [%] | Minimum Inhibitory Concentration [13] [%] | Minimum Inhibitory Concentration [14] [%] | Minimum Inhibitory Concentration [15] [%]
1 | CCCCCCCC(=O)NCC(=O)O [CG, N-capryloyl glycine] | 1 | 0.09 | 0.7 | 1 | 1 | 1 | 1 | 1 | 1. | 0.6 | 0.3 | 1 | 0.4 | 0.5 | 1
2 | C=CCCCCCCCCC(=O)NCC(=O)O [UG, N-undecylenoyl glycine] | 0.6 | 0.06 | 0.9 | 0.4 | 0.9 | 1 | 1 | 1 | 0.7 | 1 | 0.2 | 1 | 0.4 | 0.5 | 0.5
